From patent US20250186405A1, “Compound For Use In Treating Narcolepsy” (Alkermes, Inc., priority 2023, published 2025)
“And” between values parts separate entries of the source, which are not always exact repeats. Identical values can stand only once.

Tested on: subjects with narcolepsy type-1 (NT1)
Test: Part 4 POC NT1: treatment-emergent adverse events, single doses, crossover
Type: in vivo, human
Protocol: Subjects were randomized to 1 of 4 sequences.
Each subject received three doses of Compound A, including 1, 3, and 8 mg, and a single dose of placebo. […] All subjects underwent the washout period and completed all 4-way randomized crossover periods.
With one exception, each subject received three doses of Compound A, including 1, 3, and 8 mg, and a single dose of placebo. One patient withdrew from the study after the first dose due to venous access complications. […] With the exception of one patient as noted above, all subjects underwent the washout period and completed all 4-way randomized crossover periods.

## CS(=O)(=O)N[C@H]1CCCN2C(=O)COc3ccccc3C3CCC(CC3)OCC12 (stereo partly drawn) [Compound A, N-[(4S,4aR,7α,10α)-1,2,3,4,4a,5,7,8,9,10,16,17-dodecahydro-17-oxo-7,10-ethanopyrido[1,2-d][1,7,4]benzodioxaazacyclotridecin-4-yl]methanesulfonamide]
1 mg (N = 4)
  AE Leading to Study Drug Discontinuation: 0 n (%)
  Any SAEs: 0 n (%)
  Any TEAE: 1 (25.0) n (%)
  Death: 0 n (%)
  TEAE Anaemia: 0 n (%)
  TEAE Application site dermatitis: 1 (25.0) n (%)
  TEAE Blood pressure increased: 0 n (%)
  TEAE Bruxism: 0 n (%)
  TEAE Dermatitis contact: 0 n (%)
  TEAE Dizziness: 0 n (%)
  TEAE Hyperhidrosis: 0 n (%)
  TEAE Hyperlipidaemia: 0 n (%)
  TEAE Insomnia: 0 n (%)
  TEAE Pollakiuria: 0 n (%)
  TEAE Procedural anxiety: 0 n (%)
  TEAE Salivary hypersecretion: 0 n (%)
  TEAE Vascular access site injury: 0 n (%)
  TEAE Vessel puncture site bruise: 0 n (%)
  TEAE by Highest Relationship: Not Related: 1 (25.0) n (%)
  TEAE by Highest Relationship: Related: 0 n (%)
  TEAE by Highest Severity: Mild: 1 (25.0) n (%)
  TEAE by Highest Severity: Moderate: 0 n (%)
  TEAE by Highest Severity: Severe: 0 n (%)
1 mg (N = 9)
  AE Leading to Study Drug Discontinuation: 0 n (%)
  Any SAEs: 0 n (%)
  Any TEAE: 6 (66.7) n (%)
  Death: 0 n (%)
  TEAE Anaemia: 0 n (%)
  TEAE Application site dermatitis: 1 (11.1) n (%)
  TEAE Back pain: 0 n (%)
  TEAE Blood pressure increased: 0 n (%)
  TEAE Bruxism: 0 n (%)
  TEAE Decreased appetite: 1 (11.1) n (%)
  TEAE Dehydration: 1 (11.1) n (%)
  TEAE Dermatitis contact: 0 n (%)
  TEAE Dizziness: 1 (11.1) n (%)
  TEAE Haemoglobin decreased: 0 n (%)
  TEAE Headache: 0 n (%)
  TEAE Hyperhidrosis: 0 n (%)
  TEAE Hyperlipdaemia: 0 n (%)
  TEAE Insomnia: 0 n (%)
  TEAE Middle Insomnia: 0 n (%)
  TEAE Nausea: 2 (22.2) n (%)
  TEAE Pollakiuria: 0 n (%)
  TEAE Salivary hypersecretion: 1 (11.1) n (%)
  TEAE Sinus tachycardia: 1 (11.1) n (%)
  TEAE Vascular access site injury: 0 n (%)
  TEAE Vessel puncture site bruise: 0 n (%)
  TEAE Vessel puncture site pain: 0 n (%)
  TEAE by Highest Relationship: Not Related: 1 (11.1) n (%)
  TEAE by Highest Relationship: Related: 5 (55.6) n (%)
  TEAE by Highest Severity: Mild: 6 (66.7) n (%)
  TEAE by Highest Severity: Moderate: 0 n (%)
  TEAE by Highest Severity: Severe: 0 n (%)
3 mg (N = 4)
  AE Leading to Study Drug Discontinuation: 0 n (%)
  Any SAEs: 0 n (%)
  Any TEAE: 2 (50.0) n (%)
  Death: 0 n (%)
  TEAE Anaemia: 0 n (%)
  TEAE Application site dermatitis: 0 n (%)
  TEAE Blood pressure increased: 0 n (%)
  TEAE Bruxism: 0 n (%)
  TEAE Dermatitis contact: 1 (25.0) n (%)
  TEAE Dizziness: 0 n (%)
  TEAE Hyperhidrosis: 0 n (%)
  TEAE Hyperlipidaemia: 0 n (%)
  TEAE Insomnia: 0 n (%)
  TEAE Pollakiuria: 0 n (%)
  TEAE Procedural anxiety: 1 (25.0) n (%)
  TEAE Salivary hypersecretion: 0 n (%)
  TEAE Vascular access site injury: 1 (25.0) n (%)
  TEAE Vessel puncture site bruise: 1 (25.0) n (%)
  TEAE by Highest Relationship: Not Related: 2 (50.0) n (%)
  TEAE by Highest Relationship: Related: 0 n (%)
  TEAE by Highest Severity: Mild: 2 (50.0) n (%)
  TEAE by Highest Severity: Moderate: 0 n (%)
  TEAE by Highest Severity: Severe: 0 n (%)
3 mg (N = 9)
  AE Leading to Study Drug Discontinuation: 0 n (%)
  Any SAEs: 0 n (%)
  Any TEAE: 5 (55.6) n (%)
  Death: 0 n (%)
  TEAE Anaemia: 0 n (%)
  TEAE Application site dermatitis: 0 n (%)
  TEAE Back pain: 0 n (%)
  TEAE Blood pressure increased: 0 n (%)
  TEAE Bruxism: 0 n (%)
  TEAE Decreased appetite: 0 n (%)
  TEAE Dehydration: 0 n (%)
  TEAE Dermatitis contact: 2 (22.2) n (%)
  TEAE Dizziness: 0 n (%)
  TEAE Haemoglobin decreased: 0 n (%)
  TEAE Headache: 0 n (%)
  TEAE Hyperhidrosis: 0 n (%)
  TEAE Hyperlipdaemia: 0 n (%)
  TEAE Insomnia: 0 n (%)
  TEAE Middle Insomnia: 1 (11.1) n (%)
  TEAE Nausea: 0 n (%)
  TEAE Pollakiuria: 2 (22.2) n (%)
  TEAE Salivary hypersecretion: 1 (11.1) n (%)
  TEAE Sinus tachycardia: 0 n (%)
  TEAE Vascular access site injury: 1 (11.1) n (%)
  TEAE Vessel puncture site bruise: 1 (11.1) n (%)
  TEAE Vessel puncture site pain: 0 n (%)
  TEAE by Highest Relationship: Not Related: 2 (22.2) n (%)
  TEAE by Highest Relationship: Related: 3 (33.3) n (%)
  TEAE by Highest Severity: Mild: 5 (55.6) n (%)
  TEAE by Highest Severity: Moderate: 0 n (%)
  TEAE by Highest Severity: Severe: 0 n (%)
8 mg (N = 4)
  AE Leading to Study Drug Discontinuation: 0 n (%)
  Any SAEs: 0 n (%)
  Any TEAE: 4 (100) n (%) and 4 n (%)
  Death: 0 n (%)
  TEAE Anaemia: 0 n (%)
  TEAE Application site dermatitis: 1 n (%)
  TEAE Blood pressure increased: 1 n (%)
  TEAE Bruxism: 1 n (%)
  TEAE Dermatitis contact: 0 n (%)
  TEAE Dizziness: 1 n (%)
  TEAE Hyperhidrosis: 1 n (%)
  TEAE Hyperlipidaemia: 0 n (%)
  TEAE Insomnia: 3 n (%)
  TEAE Pollakiuria: 2 n (%)
  TEAE Procedural anxiety: 0 n (%)
  TEAE Salivary hypersecretion: 2 n (%)
  TEAE Vascular access site injury: 0 n (%)
  TEAE Vessel puncture site bruise: 0 n (%)
  TEAE by Highest Relationship: Not Related: 0 n (%)
  TEAE by Highest Relationship: Related: 4 (100) n (%)
  TEAE by Highest Severity: Mild: 4 (100) n (%)
  TEAE by Highest Severity: Moderate: 0 n (%)
  TEAE by Highest Severity: Severe: 0 n (%)
8 mg (N = 10)
  AE Leading to Study Drug Discontinuation: 0 n (%)
  Any SAEs: 0 n (%)
  Any TEAE: 9 (90.0) n (%)
  Death: 0 n (%)
  TEAE Anaemia: 0 n (%)
  TEAE Application site dermatitis: 1 (10.0) n (%)
  TEAE Back pain: 1 (10.0) n (%)
  TEAE Blood pressure increased: 1 (10.0) n (%)
  TEAE Bruxism: 1 (10.0) n (%)
  TEAE Decreased appetite: 1 (10.0) n (%)
  TEAE Dehydration: 0 n (%)
  TEAE Dermatitis contact: 0 n (%)
  TEAE Dizziness: 2 (20.0) n (%)
  TEAE Haemoglobin decreased: 1 (10.0) n (%)
  TEAE Headache: 0 n (%)
  TEAE Hyperhidrosis: 1 (10.0) n (%)
  TEAE Hyperlipdaemia: 0 n (%)
  TEAE Insomnia: 3 (30.0) n (%)
  TEAE Middle Insomnia: 3 (30.0) n (%)
  TEAE Nausea: 2 (20.0) n (%)
  TEAE Pollakiuria: 4 (40.0) n (%)
  TEAE Salivary hypersecretion: 3 (30.0) n (%)
  TEAE Sinus tachycardia: 1 (10.0) n (%)
  TEAE Vascular access site injury: 0 n (%)
  TEAE Vessel puncture site bruise: 2 (20.0) n (%)
  TEAE Vessel puncture site pain: 2 (20.0) n (%)
  TEAE by Highest Relationship: Not Related: 0 n (%)
  TEAE by Highest Relationship: Related: 9 (90.0) n (%)
  TEAE by Highest Severity: Mild: 8 (80.0) n (%)
  TEAE by Highest Severity: Moderate: 1 (10.0) n (%)
  TEAE by Highest Severity: Severe: 0 n (%)
NT1, 1, 3 and 8 mg
  Tolerability: well tolerated
Total (N = 4)
  AE Leading to Study Drug Discontinuation: 0 n (%)
  Any SAEs: 0 n (%)
  Any TEAE: 4 (100) n (%) and 4 n (%)
  Death: 0 n (%)
  TEAE Anaemia: 0 n (%)
  TEAE Application site dermatitis: 2 n (%)
  TEAE Blood pressure increased: 1 n (%)
  TEAE Bruxism: 1 n (%)
  TEAE Dermatitis contact: 1 n (%)
  TEAE Dizziness: 1 n (%)
  TEAE Hyperhidrosis: 1 n (%)
  TEAE Hyperlipidaemia: 0 n (%)
  TEAE Insomnia: 3 n (%)
  TEAE Pollakiuria: 2 n (%)
  TEAE Procedural anxiety: 1 n (%)
  TEAE Salivary hypersecretion: 2 n (%)
  TEAE Vascular access site injury: 1 n (%)
  TEAE Vessel puncture site bruise: 1 n (%)
  TEAE by Highest Relationship: Not Related: 0 n (%)
  TEAE by Highest Relationship: Related: 4 (100) n (%)
  TEAE by Highest Severity: Mild: 4 (100) n (%)
  TEAE by Highest Severity: Moderate: 0 n (%)
  TEAE by Highest Severity: Severe: 0 n (%)
Total (N = 10)
  Any TEAE: 9 (90.0) n (%)
  TEAE Anaemia: 0 n (%)
  TEAE Application site dermatitis: 2 (20.0) n (%)
  TEAE Back pain: 1 (10.0) n (%)
  TEAE Blood pressure increased: 1 (10.0) n (%)
  TEAE Bruxism: 1 (10.0) n (%)
  TEAE Decreased appetite: 2 (20.0) n (%)
  TEAE Dehydration: 1 (10.0) n (%)
  TEAE Dermatitis contact: 2 (20.0) n (%)
  TEAE Dizziness: 2 (20.0) n (%)
  TEAE Haemoglobin decreased: 1 (10.0) n (%)
  TEAE Headache: 0 n (%)
  TEAE Hyperhidrosis: 1 (10.0) n (%)
  TEAE Hyperlipdaemia: 0 n (%)
  TEAE Insomnia: 3 (30.0) n (%)
  TEAE Middle Insomnia: 3 (30.0) n (%)
  TEAE Nausea: 2 (20.0) n (%)
  TEAE Pollakiuria: 4 (40.0) n (%)
  TEAE Salivary hypersecretion: 3 (30.0) n (%)
  TEAE Sinus tachycardia: 1 (10.0) n (%)
  TEAE Vascular access site injury: 1 (10.0) n (%)
  TEAE Vessel puncture site bruise: 3 (30.0) n (%)
  TEAE Vessel puncture site pain: 2 (20.0) n (%)
